The results in this text go back to BindingDB's records for PubMed 1328199 (University of Chicago, 1992).

The structures appear in SMILES notation. Bridge positions count the residues as written; N and C are the ends. Square brackets hold non-standard residues; d marks the D form. Peptide text beside a SMILES is read from it. * marks the point of attachment. X1 = CC(O)[C@H](CO)N*

For orientation: Ki means the dissociation constant of the complex between target and ligand, obtained from inhibition or displacement.

For assay [1], the target named is Somatostatin receptor type 2 (Mus musculus, UniProt P30875).
Assay [2] addresses Somatostatin receptor type 3 (Mus musculus, UniProt P30935).

Chain of Somatostatin receptor type 3 (P30935 whole entry): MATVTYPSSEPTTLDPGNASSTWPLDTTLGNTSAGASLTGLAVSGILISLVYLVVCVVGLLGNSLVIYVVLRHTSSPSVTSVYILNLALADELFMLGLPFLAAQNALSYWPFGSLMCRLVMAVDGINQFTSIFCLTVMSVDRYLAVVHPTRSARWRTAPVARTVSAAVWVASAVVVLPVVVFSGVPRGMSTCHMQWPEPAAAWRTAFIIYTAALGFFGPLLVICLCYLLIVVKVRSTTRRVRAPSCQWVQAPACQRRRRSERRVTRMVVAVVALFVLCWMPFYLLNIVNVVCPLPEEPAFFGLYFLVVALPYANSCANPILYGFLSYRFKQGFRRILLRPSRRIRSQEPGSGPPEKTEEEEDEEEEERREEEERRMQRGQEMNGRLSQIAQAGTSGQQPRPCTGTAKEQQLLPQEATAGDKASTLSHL
Chain of Somatostatin receptor type 2 (P30875 whole entry): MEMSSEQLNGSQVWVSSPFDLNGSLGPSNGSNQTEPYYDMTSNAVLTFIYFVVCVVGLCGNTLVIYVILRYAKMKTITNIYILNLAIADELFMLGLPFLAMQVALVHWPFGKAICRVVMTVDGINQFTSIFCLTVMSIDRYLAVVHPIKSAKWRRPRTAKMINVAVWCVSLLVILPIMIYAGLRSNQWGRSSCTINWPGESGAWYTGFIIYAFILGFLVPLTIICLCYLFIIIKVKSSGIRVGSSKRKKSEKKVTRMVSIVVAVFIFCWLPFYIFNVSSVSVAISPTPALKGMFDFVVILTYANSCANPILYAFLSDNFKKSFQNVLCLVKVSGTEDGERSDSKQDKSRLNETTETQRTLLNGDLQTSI

For `CC(O)[C@H](CO)NC(=O)[C@@H]1CSSC[C@H](NC(=O)[C@H](N)Cc2ccccc2)C(=O)N[C@@H](Cc2ccccc2)C(=O)N[C@H](Cc2c[nH]c3ccccc23)C(=O)N[C@@H](CCCCN)C(=O)N[C@@H]([C@@H](C)O)C(=O)N1` (some centres undefined) (H-[dF]CF[dW]KTC-X1; disulfide 2-7), the Ki in assay [1] turned out to be 0.5 nM; in assay [2], 150 nM.
The matching figures for `CC(C)[C@@H]1NC(=O)[C@H](CCCCN)NC(=O)[C@@H](Cc2c[nH]c3ccccc23)NC(=O)[C@H](Cc2ccc(O)cc2)NC(=O)[C@H](C)N(C)C(=O)[C@H](Cc2ccccc2)NC1=O` [CAS_3086456]: 0.07 nM and 268 nM.
